The nature of series [1]: Pharmacokinetics in mice, brain. Type of series: in vivo, C57BL/6 mice. The settings on record: for half-life / Cmax / Tmax: male, C57BL/6; for half-life / Cmax / Tmax / AUC0-last: mouse brain. The procedure: Animals. Male C57BL/6 mice, aged 8-12 weeks, were used in these studies. Four mice were housed in each cage. Temperature and humidity were maintained at 22±3° C. and 30-70%, respectively, and illumination was controlled to give a 12 h light and 12 h dark cycle. Temperature and humidity were recorded by an auto-controlled data logger system. All animals were provided laboratory rodent diet. Reverse osmosis water treated with ultraviolet light was provided ad libitum. Animals were randomly assigned to treatment groups.
Drugs. Compounds 4 and 5 were prepared as described above. All other compounds were commercially obtained. Test compounds were used as the hydrogen fumarate (1 and 2) or hydrochloride (3, 4, and 5) salts and were dissolved in a vehicle consisting of normal saline. They were then administered intravenously (IV) via the tail vein, subcutaneously (SC), or orally (PO) via gavage at a dose of 1 or 10 mg/kg (calculated based on the free base) and at a volume of 5 ml/kg body weight.
Sample Collection and Bioanalysis. Blood samples (approximately 60 μL) were collected under light isoflurane anesthesia (Surgivet®) from the retro orbital plexus at 0.08, 0.25, 0.5, 1, 2, 4, 8, and 24 h (4 animals per time point). Immediately after blood collection, plasma was harvested by centrifugation at 4,000 rpm for 10 min at 4° C. and samples were stored at −70±10° C. until bioanalysis. Following blood collection, animals were immediately sacrificed, the abdominal vena-cava was cut open, and the whole body was perfused from the heart using 10 mL of normal saline, and brain samples were collected from all animals. After isolation, brain samples were rinsed three times in ice-cold normal saline (for 5-10 seconds/rinse using ˜5-10 mL normal saline in disposable petri dish for each rinse) and dried on blotting paper. Brain samples were homogenized using ice-cold phosphate-buffered saline (pH 7.4). Total homogenate volume was three times the tissue weight. All homogenates were stored at −70±10° C. until bioanalysis. For bioanalysis, 25 μL aliquots of plasma/brain study samples or spiked plasma/brain calibration standards were added to individual pre-labeled micro-centrifuge tubes followed by 100 μL of an internal standard solution (glipizide, 500 ng/ml in acetonitrile) except for blanks, where 100 μL of acetonitrile was added. Samples were vortexed for 5 minutes and then centrifuged for 10 minutes at 4,000 rpm at 4° C. Following centrifugation, 100 μL of each clear supernatant was transferred to a 96 well plate and analyzed with a fit-for-purpose LC-MS/MS method, with authentic samples of each analyte used for calibration and identification.
Data Analysis. Pharmacokinetic parameters were estimated using the non-compartmental analysis tool of Phoenix® WinNonlin software (Ver 8.0).

For the next series, the target named is 5-HT2B (Homo sapiens (Human), UniProt P41595). Briefly: FLIPR Ca2+ flux agonist assay, 5-HT2B. As to conditions: for 5-HT2B % Act @ Max Dose: Ca2+ flux, HEK293. Type of series: cell-based. The procedure: (§1) A solution of 250 mM probenecid in 1 mL FLIPR assay buffer was prepared fresh. This was combined with a fluorescent dye (Fluo-4 Direct™) to make a final assay concentration of 2.5 mM. […] The fluorescent dye was then added to the assay plate along with assay buffer to a final volume of 40 μL. The cell plate was incubated for 50 min at 37° C. and 5% CO2 and placed into the FLIPR Tetra along with the compound plate. 10 μL of references and compounds were then transferred from the compound plate into the cell plate and the fluorescent signal was read.
5-HT2B, sequence (P41595 whole entry, looked up, species assumed): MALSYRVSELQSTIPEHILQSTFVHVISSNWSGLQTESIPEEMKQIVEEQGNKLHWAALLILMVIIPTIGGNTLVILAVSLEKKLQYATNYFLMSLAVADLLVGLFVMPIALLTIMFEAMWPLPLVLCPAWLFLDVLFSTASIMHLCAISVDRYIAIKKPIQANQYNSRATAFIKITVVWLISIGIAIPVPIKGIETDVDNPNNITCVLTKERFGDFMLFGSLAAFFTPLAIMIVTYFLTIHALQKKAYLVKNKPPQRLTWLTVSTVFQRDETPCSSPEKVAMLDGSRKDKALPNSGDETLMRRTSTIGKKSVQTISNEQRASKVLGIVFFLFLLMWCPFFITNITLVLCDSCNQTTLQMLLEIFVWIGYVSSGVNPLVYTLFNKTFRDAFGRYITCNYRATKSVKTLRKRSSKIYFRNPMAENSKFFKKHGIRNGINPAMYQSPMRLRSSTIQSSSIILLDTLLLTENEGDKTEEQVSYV

The nature of series [2]: Metabolic stability in rat liver microsomes (RLM). Type of series: in vitro ADME. As to conditions: both sexes, pooled rat liver microsomes, pH 7.4, NADPH. The procedure: RLM Stability. Pooled RLM from adult male and female donors (Xenotech R1000) were used. Microsomal incubations were carried out in multi-well plates. […] Control incubations were performed by replacing the NADPH-cofactor system with PBS. Test compounds (1 μM, final solvent concentration 1.0%) were incubated with microsomes at 37° C. with constant shaking. Six time points over 60 minutes were analyzed, with 60 μL aliquots of the reaction mixture being drawn at each time point.

Series [3] can be described thus: Stability in rat brain homogenate. Type of series: in vitro ADME, Sprague Dawley rats. As to conditions: for half-life at 1 μM: male, Sprague Dawley; for half-life at 1 μM / % Compound Remaining (after 120 min): rat brain homogenate, 37° C., 1 μM. The procedure:
Rat Brain Homogenate Stability. Frozen rat brain homogenate (pooled from male Sprague Dawley rats, BioreclamationIVT, RATOOBRAINMZA) was thawed in a water bath at 37° C. immediately prior to use. Positive controls and test compounds (final concentration in incubation medium=1 μM for test compounds and 2 μM for controls, all with 2% DMSO) were incubated in duplicate for each time point (0, 10, 30, 60, and 120 min) in the rat brain homogenate at a total reaction volume of 100 μL at 37° C. At the end of each incubation period, reactions were immediately quenched with 400 μL of acetonitrile containing internal standard (200 ng/ml tolbutamine and 200 ng/ml labetalol) and mixed thoroughly. Plates were then sealed, shaken for 20 min, and centrifuged at 4,000 rpm and 4° C. for 20 min. Aliquots of 50 μL of each supernatant were diluted into 100 uL of water and the mixtures were then shaken again for 10 min.

Series [4] can be described thus: Stability in mouse brain homogenate. Type of series: in vitro ADME, CD-1 mice. The settings on record: for half-life at 1 μM: male, CD-1; for half-life at 1 μM / % Compound Remaining (after 120 min): mouse brain homogenate, 37° C., 1 μM. As for the experimental part:
Mouse Brain Homogenate Stability. Frozen mouse brain homogenate (pooled from male CD-1 mice, BioreclamationIVT, MSE00BRAINMZA) was thawed in a water bath at 37° C. immediately prior to use. Positive controls and test compounds (final concentration in incubation medium=1 μM for test compounds and 2 μM for controls, all with 2% DMSO) were incubated in duplicate for each time point (0, 10, 30, 60, and 120 min) in the mouse brain homogenate at a total reaction volume of […] at 37° C. At the end of each incubation period, reactions were immediately quenched with 400 μL of acetonitrile containing internal standard (200 ng/mL tolbutamine and 200 ng/ml labetalol) and mixed thoroughly. Plates were then sealed, shaken for 20 min, and centrifuged at 4,000 rpm and 4° C. for 20 min. Aliquots of 50 μL of each supernatant were diluted into 100 μL of water and the mixtures were then shaken again for 10 min.

Series [5] is described as follows: Metabolic stability in human liver microsomes (HLM). Type of series: in vitro ADME. The settings on record: both sexes, pooled human liver microsomes, pH 7.4, NADPH. As for the experimental part: HLM Stability. Pooled HLM from adult male and female donors (Corning 452117) were used. Microsomal incubations were carried out in multi-well plates. […] Control incubations were performed by replacing the NADPH-cofactor system with PBS. Test compounds (1 μM, final solvent concentration 1.0%) were incubated with microsomes at 37° C. with constant shaking. Six time points over 60 minutes were analyzed, with 60 μL aliquots of the reaction mixture being drawn at each time point.
Background: Microsomes from liver hold many membrane-bound enzymes, among them those of drug oxidation.

A further series addresses 5-HT1A (Homo sapiens (Human), UniProt P08908). Briefly: FLIPR Ca2+ flux agonist assay, 5-HT1A. As to conditions: for 5-HT1A % Act @ Max Dose: Ca2+ flux, CHO cells. Type of series: cell-based. As for the experimental part: as §1
A general note: Calcium flux is commonly read through the fluorescence of an indicator in the cells.

SMILES strings stand for the structures. Counter-ions that a name gives are not always drawn. Like-named read-outs stand apart in the source and are kept apart here.

Usually half-life stands for the time needed for the level to fall by half in the phase considered. A high value points to slow loss. For orientation: Cmax means the peak of the concentration-time curve. Broadly, the Tmax is the time at which the peak concentration occurs. For orientation: EC50 means the concentration at which the effect is half-maximal. Read a high EC50 as lower potency in that assay. The term microsomal CLint denotes the capacity of the preparation to metabolise the compound, expressed as a volume cleared per time. Low readings indicate greater metabolic stability, high ones faster metabolism.

Turning to `CCCN(CC)CCc1c[nH]c2ccccc12` [Compound 1, ethylpropyltryptamine], in series [1] (IV, 10 mg/kg), the half-life is 104 min and the AUC0-last was 4,754.52 h*ng/g. Moreover, the Cmax in series [1] (IV, 10 mg/kg, read-out: Cmax (C0 back-extrapolated to t = 0)) was 15400 ng/g. In addition, in series [1] (oral, 10 mg/kg), the Tmax came to 15 min, the half-life was 39.6 min and the AUC0-last was determined as 68.93 ng·h/g. Besides, the Cmax in series [1] (oral, 10 mg/kg, read-out: Cmax) amounted to 101 ng/g. Further, the F in series [1] (mouse, oral, 10 mg/kg, based on brain AUC0-last) worked out at 1.4%. Besides, on 5-HT2B, the EC50 is 0.0403 µM and the “5-HT2B % Act @ Max Dose” value was determined as 80.4%. In series [2], this compound showed a half-life at 1 μM of 1.4 min and a microsomal CLint at 1 μM of 970 µL/min/mg. For the same compound, in series [3], the “stability in rat brain homogenate (in words)” value is “high stability”, the half-life at 1 μM is more than 289 min and the “% Compound Remaining (after 120 min)” value is reported as 86.9%. For the same compound, in series [4], the “stability in mouse brain homogenate (in words)” value was “high stability”, the half-life at 1 μM is more than 289 min and the “% Compound Remaining (after 120 min)” value is 113.8%. In series [5], the half-life at 1 μM turned out to be 21.7 min and the microsomal CLint at 1 μM amounted to 64.3 µL/min/mg. In addition, on 5-HT1A, the EC50 is 88.7 µM and the “5-HT1A % Act @ Max Dose” value turned out to be 75.5%.
As to `CCCN(CC)CCc1c[nH]c2ccc(F)cc12` [Compound 3, N-ethyl-N-(2-(5-fluoro-1H-indol-3-yl)ethyl) propan-1-amine hydrochloride], at 5-HT2B, the midpoint of the response, the EC50, lay at 0.0154 µM and the “5-HT2B % Act @ Max Dose” value was found to be 64.64%. In series [2], this compound returned a half-life at 1 μM of 3.2 min and a microsomal CLint at 1 μM of 428 µL/min/mg. In addition, in series [3], the “stability in rat brain homogenate (in words)” value is given as “high stability”, the half-life at 1 μM was more than 289 min and the “% Compound Remaining (after 120 min)” value was 103.3%. Also, in series [4], the “stability in mouse brain homogenate (in words)” value is recorded as “high stability”, the half-life at 1 μM was more than 289 min and the “% Compound Remaining (after 120 min)” value turned out to be 76.7%. In series [5], this compound showed a half-life at 1 μM of 13 min and a microsomal CLint at 1 μM of 106 µL/min/mg. Further, at 5-HT1A, the EC50 was found to be 19.6 µM and the “5-HT1A % Act @ Max Dose” value is listed as 88.34%.
For `CN(C)CCc1c[nH]c2ccc(F)cc12` [Compound 5, 2-(5-fluoro-1H-indol-3-yl)-N,N-dimethylethan-1-amine hydrochloride], in series [1] (SC, 1 mg/kg), the Tmax stood at 4.8 min. Moreover, in series [1] (SC, 1 mg/kg, read-out: Cmax), the Cmax came out at 22 ng/g. In addition, in series [1] (SC, 10 mg/kg), the Tmax came to 15 min and the AUC0-last was found to be 376.09 ng·h/g. Further, the Cmax in series [1] (SC, 10 mg/kg, read-out: Cmax) was 778 ng/g. For the same compound, in series [2], the half-life at 1 μM amounted to 9.2 min and the microsomal CLint at 1 μM was 151 µL/min/mg. Also, in series [3], the “stability in rat brain homogenate (in words)” value is recorded as “highly unstable”, the half-life at 1 μM was determined as 2.7 min and the “% Compound Remaining (after 120 min)” value was determined as 0.0%. Also, in series [4], the “stability in mouse brain homogenate (in words)” value was “highly unstable”, the half-life at 1 μM was 3.1 min and the “% Compound Remaining (after 120 min)” value worked out at 0.0%. Moreover, in series [5], the half-life at 1 μM was 4.6 min and the microsomal CLint at 1 μM was determined as 300 µL/min/mg.
As for `CN(C)CCc1c[nH]c2ccccc12` [DMT, N,N-dimethyltryptamine, reference compound], the “5-HT2B % Act @ Max Dose” value on 5-HT2B is recorded as 10.4%. In series [2], this compound returned a half-life at 1 μM of 10.1 min and a microsomal CLint at 1 μM of 137 µL/min/mg. In series [3], the “stability in rat brain homogenate (in words)” value is listed as “highly unstable”, the half-life at 1 μM turned out to be 5.1 min and the “% Compound Remaining (after 120 min)” value was determined as 0.0%. In series [4], the “stability in mouse brain homogenate (in words)” value was “highly unstable”, the half-life at 1 μM is 6.4 min and the “% Compound Remaining (after 120 min)” value came to 0.0%. The compound also gave a half-life at 1 μM in series [5] of 7 min. On 5-HT1A, the “5-HT1A % Act @ Max Dose” value turned out to be 68.1%.

(Values after patent publication US20240317683A1, “METHODS OF TREATING MOOD DISORDERS” (priority 2020, published 2024).)
